Measurements taken from publication PMC8298522 (Scientific Reports, 2021).

Test system: insulin-positive and insulin-negative pancreatic tumors
Assay type: in vivo
Conditions: [^68Ga]DOTATOC PET/CT, scan 30 min after injection
Experimental: PET scans were performed after 30 min of injection of the labeled substance via tail vein (10 MBq/mouse) under 2.0% isoflurane anesthesia using a Triumph LabPET12/SPECT4/CT (TriFoil Imaging Inc., Chatsworth, CA, USA)[41].
After completion of the PET/CT procedures, mice were sacrificed by cervical dislocation, followed by immediate resection of the pancreas. Tissues were spread on filter paper and immediately fixed in 10% formalin at 4 °C. For the analysis of pancreatic tumors, serial formalin-fixed paraffin-embedded sections (4-μm thickness) were stained with anti-insulin and anti-glucagon antibody, as previously reported[39]. Briefly, primary rabbit polyclonal antibody was used for insulin detection at an antibody dilution of 1:100 (Cat# sc-9168; Santa Cruz Biotechnology, USA) and a mouse monoclonal antibody glucagon detection at an antibody dilution of 1:100 (Cat# ab10988; Abcam, USA). The secondary antibodies utilized for the assay were Alexa Fluor 488 goat anti-rabbit antibody at 1:200 dilution (Cat# A-11008; Thermo Fisher Scientific, USA) and Alexa Fluor 546 goat anti-mouse antibody at 1:200 dilution (Cat# A-11030; Thermo Fisher Scientific, USA), respectively. The slides were prepared for analyses under a fluorescence microscope (BZ-X700; Keyence, Osaka, Japan).

C[C@@H](O)[C@@H]1NC(=O)[C@H](CCCCN)NC(=O)[C@@H](Cc2c[nH]c3ccccc23)NC(=O)[C@H](Cc2ccc(O)cc2)NC(=O)[C@@H](NC(=O)[C@@H](Cc2ccccc2)NC(=O)CN2CCN(CC(=O)[O-])CCN(CC(=O)[O-])CCN(CC(=O)[O-])CC2)CSSC[C@@H](C(=O)N[C@H](CO)[C@@H](C)O)NC1=O.[68Ga+3] [[^68Ga]DOTATOC, ^68Ga-labeled 1,4,7,10-tetraazacyclododecane-N,N′,N″,N″-tetraacetic acid-d-Phe^1-Tyr^3-octreotide]
Specificity for detecting insulin-positive tumors: 0%
